ChEMBL document CHEMBL2440076, “New triarylpyrazoles as broad-spectrum anticancer agents: design, synthesis, and biological evaluation” (Eur J Med Chem, 2013)

How the values were obtained:
Type in all cases: functional
PC-3 [1] = experiment: Growth inhibition of human PC3 cells assessed as cell growth at 10^-5 M after 48 hrs by sulforhodamine B assay; conditions: PC-3, 48 h, read-out: Activity
HCT-15 [2] = experiment: Growth inhibition of human HCT15 cells assessed as cell growth at 10^-7 M after 48 hrs by sulforhodamine B assay; conditions: HCT-15, 48 h, read-out: Activity
SK-MEL-28 [3] = experiment: Growth inhibition of human SK-MEL-28 cells assessed as cell growth at 10^-7 M after 48 hrs by sulforhodamine B assay; conditions: SK-MEL-28, 48 h, read-out: Activity
RPMI-8226 = experiment: Growth inhibition of human RPMI8226 cells assessed as cell growth at 10^-8 M after 48 hrs by sulforhodamine B assay; conditions: RPMI-8226, 48 h, read-out: Activity
HOP-92 = experiment: Growth inhibition of human HOP92 cells assessed as cell growth at 10^-6 M after 48 hrs by sulforhodamine B assay; conditions: HOP-92, 48 h, read-out: Activity
SK-MEL-28 [4] = experiment: Growth inhibition of human SK-MEL-28 cells assessed as cell growth at 10^-6 M after 48 hrs by sulforhodamine B assay; conditions: SK-MEL-28, 48 h, read-out: Activity
SF-539 = experiment: Growth inhibition of human SF539 cells assessed as cell growth at 10^-7 M after 48 hrs by sulforhodamine B assay; conditions: SF-539, 48 h, read-out: Activity
OVCAR-4 [5] = experiment: Growth inhibition of human OVCAR4 cells assessed as cell growth at 10^-5 M after 48 hrs by sulforhodamine B assay; conditions: OVCAR-4, 48 h, read-out: Activity
PC-3 [6] = experiment: Growth inhibition of human PC3 cells assessed as cell growth at 10^-4 M after 48 hrs by sulforhodamine B assay; conditions: PC-3, 48 h, read-out: Activity
DU-145 [7] = experiment: Growth inhibition of human DU145 cells assessed as cell growth at 10^-4 M after 48 hrs by sulforhodamine B assay; conditions: DU-145, 48 h, read-out: Activity
MDA-MB-231 [8] = experiment: Growth inhibition of human MDA-MB-231 cells assessed as cell growth at 10^-5 M after 48 hrs by sulforhodamine B assay; conditions: MDA-MB-231, 48 h, read-out: Activity
HL-60(TB) = experiment: Growth inhibition of human HL-60(TB) cells assessed as cell growth at 10^-4 M after 48 hrs by sulforhodamine B assay; conditions: HL-60, 48 h, read-out: Activity
DU-145 [9] = experiment: Growth inhibition of human DU145 cells assessed as cell growth at 10^-8 M after 48 hrs by sulforhodamine B assay; conditions: DU-145, 48 h, read-out: Activity
NCI-H23 = experiment: Growth inhibition of human NCI-H23 cells assessed as cell growth at 10^-7 M after 48 hrs by sulforhodamine B assay; conditions: NCI-H23, 48 h, read-out: Activity
OVCAR-3 [10] = experiment: Growth inhibition of human OVCAR3 cells assessed as cell growth at 10^-5 M after 48 hrs by sulforhodamine B assay; conditions: OVCAR-3, 48 h, read-out: Activity
SNB-75 = experiment: Growth inhibition of human SNB75 cells assessed as cell growth at 10^-6 M after 48 hrs by sulforhodamine B assay; conditions: SNB-75, 48 h, read-out: Activity
Malme-3M = experiment: Growth inhibition of human MALME-3M cells assessed as cell growth at 10^-4 M after 48 hrs by sulforhodamine B assay; conditions: read-out: Activity
ACHN = experiment: Growth inhibition of human ACHN cells assessed as cell growth at 10^-5 M after 48 hrs by sulforhodamine B assay; conditions: read-out: Activity
COLO 205 = experiment: Growth inhibition of human COLO205 cells assessed as cell growth at 10^-8 M after 48 hrs by sulforhodamine B assay; conditions: COLO 205, 48 h, read-out: Activity
OVCAR-3 [11] = experiment: Growth inhibition of human OVCAR3 cells assessed as cell growth at 10^-7 M after 48 hrs by sulforhodamine B assay; conditions: OVCAR-3, 48 h, read-out: Activity
M14 = experiment: Growth inhibition of human M14 cells assessed as cell growth at 10^-6 M after 48 hrs by sulforhodamine B assay; conditions: M14, 48 h, read-out: Activity
MDA-MB-231 [12] = experiment: Growth inhibition of human MDA-MB-231 cells assessed as cell growth at 10^-4 M after 48 hrs by sulforhodamine B assay; conditions: MDA-MB-231, 48 h, read-out: Activity
HOP-62 [13] = experiment: Growth inhibition of human HOP62 cells assessed as cell growth at 10^-5 M after 48 hrs by sulforhodamine B assay; conditions: HOP-62, 48 h, read-out: Activity
OVCAR-8 = experiment: Growth inhibition of human OVCAR8 cells assessed as cell growth at 10^-4 M after 48 hrs by sulforhodamine B assay; conditions: OVCAR-8, 48 h, read-out: Activity
NCI-H460 = experiment: Growth inhibition of human NCI-H460 cells assessed as cell growth at 10^-6 M after 48 hrs by sulforhodamine B assay; conditions: NCI-H460, 48 h, read-out: Activity
NCI-H522 = experiment: Growth inhibition of human NCI-H522 cells assessed as cell growth at 10^-6 M after 48 hrs by sulforhodamine B assay; conditions: NCI-H522, 48 h, read-out: Activity
KM12 = experiment: Growth inhibition of human KM12 cells assessed as cell growth at 10^-7 M after 48 hrs by sulforhodamine B assay; conditions: KM12, 48 h, read-out: Activity
MOLT-4 = experiment: Growth inhibition of human MOLT4 cells assessed as cell growth at 10^-4 M after 48 hrs by sulforhodamine B assay; conditions: MOLT-4, 48 h, read-out: Activity
OVCAR-4 [14] = experiment: Growth inhibition of human OVCAR4 cells assessed as cell growth at 10^-8 M after 48 hrs by sulforhodamine B assay; conditions: OVCAR-4, 48 h, read-out: Activity
HOP-62 [15] = experiment: Growth inhibition of human HOP62 cells assessed as cell growth at 10^-4 M after 48 hrs by sulforhodamine B assay; conditions: HOP-62, 48 h, read-out: Activity
T47D = experiment: Growth inhibition of human T47D cells assessed as cell growth at 10^-4 M after 48 hrs by sulforhodamine B assay; conditions: read-out: Activity
SK-MEL-28 [16] = experiment: Growth inhibition of human SK-MEL-28 cells assessed as cell growth at 10^-8 M after 48 hrs by sulforhodamine B assay; conditions: SK-MEL-28, 48 h, read-out: Activity
HT-29 = experiment: Growth inhibition of human HT-29 cells assessed as cell growth at 10^-7 M after 48 hrs by sulforhodamine B assay; conditions: HT-29, 48 h, read-out: Activity
CAKI-1 = experiment: Growth inhibition of human CAKI-1 cells assessed as cell growth at 10^-7 M after 48 hrs by sulforhodamine B assay; conditions: CAKI-1, 48 h, read-out: Activity
[17] = Growth inhibition of human HCC2998 cells assessed as cell growth at 10^-5 M after 48 hrs by sulforhodamine B assay; conditions: HCC 2998, 48 h, read-out: Activity
[18] = Growth inhibition of human Hs 578T cells assessed as cell growth at 10^-6 M after 48 hrs by sulforhodamine B assay; conditions: read-out: Activity
HCT-15 [19] = experiment: Growth inhibition of human HCT15 cells assessed as cell growth at 10^-4 M after 48 hrs by sulforhodamine B assay; conditions: HCT-15, 48 h, read-out: Activity
MDA-MB-231 [20] = experiment: Growth inhibition of human MDA-MB-231 cells assessed as cell growth at 10^-6 M after 48 hrs by sulforhodamine B assay; conditions: MDA-MB-231, 48 h, read-out: Activity

For `COc1cc(-c2nn(-c3cccc(NC(=O)c4ccccc4)c3)cc2-c2ccncc2)ccc1Cl`, the growth at 10 µM (PC-3 [1]) was 13%, the growth at 0.1 µM (HCT-15 [2]) was 96% and the growth at 0.1 µM (SK-MEL-28 [3]) was 94%. For the same compound, the growth at 0.01 µM (RPMI-8226) was 102%, the growth at 1 µM (HOP-92) was 15% and the growth at 1 µM (SK-MEL-28 [4]) was 60%. For the same compound, the growth at 0.1 µM (SF-539) was 91%, the growth at 10 µM (OVCAR-4 [5]) was 33% and the growth at 100 µM (PC-3 [6]) was 3%. For the same compound, the growth at 100 µM (DU-145 [7]) was -5%, the growth at 10 µM (MDA-MB-231 [8]) was 7% and the growth at 100 µM (HL-60(TB)) was 16%. It also gave a growth at 0.01 µM (DU-145 [9]) of 104%, a growth at 0.1 µM (NCI-H23) of 91% and a growth at 10 µM (OVCAR-3 [10]) of 2%. It also gave a growth at 1 µM (SNB-75) of 39%, a growth at 100 µM (Malme-3M) of 20% and a growth at 10 µM (ACHN) of 26%. It also gave a growth at 0.01 µM (COLO 205) of 100%, a growth at 0.1 µM (OVCAR-3 [11]) of 101% and a growth at 1 µM (M14) of 37%. For the same compound, the growth at 100 µM (MDA-MB-231 [12]) was -42%, the growth at 10 µM (HOP-62 [13]) was 48% and the growth at 100 µM (OVCAR-8) was 26%. It also gave a growth at 1 µM (NCI-H460) of 17%, a growth at 1 µM (NCI-H522) of 15% and a growth at 0.1 µM (KM12) of 91%. The growth at 100 µM (MOLT-4) was 33%, the growth at 0.01 µM (OVCAR-4 [14]) was 93% and the growth at 100 µM (HOP-62 [15]) was 31%. For the same compound, the growth at 100 µM (T47D) was 30%, the growth at 0.01 µM (SK-MEL-28 [16]) was 99% and the growth at 0.1 µM (HT-29) was 98%. It also gave a growth at 0.1 µM (CAKI-1) of 99%, a growth at 10 µM [17] of 7% and a growth at 1 µM [18] of 52%. For the same compound, the growth at 100 µM (HCT-15 [19]) was 12% and the growth at 1 µM (MDA-MB-231 [20]) was 53%.

`COc1cc(-c2nn(-c3cccc(NC(=O)c4ccc(N5CCOCC5)c(C(F)(F)F)c4)c3)cc2-c2ccncc2)ccc1Cl` gave a growth at 10 µM (PC-3 [1]) of 1%, a growth at 0.1 µM (HCT-15 [2]) of 65% and a growth at 0.1 µM (SK-MEL-28 [3]) of 68%. For the same compound, the growth at 0.01 µM (RPMI-8226) was 102%, the growth at 1 µM (HOP-92) was -5% and the growth at 1 µM (SK-MEL-28 [4]) was 56%. The growth at 0.1 µM (SF-539) was 68%, the growth at 10 µM (OVCAR-4 [5]) was 32% and the growth at 100 µM (PC-3 [6]) was -5%. It also gave a growth at 100 µM (DU-145 [7]) of 2%, a growth at 10 µM (MDA-MB-231 [8]) of -30% and a growth at 100 µM (HL-60(TB)) of 6%. It also gave a growth at 0.01 µM (DU-145 [9]) of 108%, a growth at 0.1 µM (NCI-H23) of 92% and a growth at 10 µM (OVCAR-3 [10]) of -36%. For the same compound, the growth at 1 µM (SNB-75) was -2%, the growth at 100 µM (Malme-3M) was -24% and the growth at 10 µM (ACHN) was 2%. For the same compound, the growth at 0.01 µM (COLO 205) was 106%, the growth at 0.1 µM (OVCAR-3 [11]) was 76% and the growth at 1 µM (M14) was 35%. For the same compound, the growth at 100 µM (MDA-MB-231 [12]) was -30%, the growth at 10 µM (HOP-62 [13]) was 31% and the growth at 100 µM (OVCAR-8) was 1%. For the same compound, the growth at 1 µM (NCI-H460) was 16%, the growth at 1 µM (NCI-H522) was 17% and the growth at 0.1 µM (KM12) was 64%. For the same compound, the growth at 100 µM (MOLT-4) was 2%, the growth at 0.01 µM (OVCAR-4 [14]) was 97% and the growth at 100 µM (HOP-62 [15]) was 9%. It also gave a growth at 100 µM (T47D) of 13%, a growth at 0.01 µM (SK-MEL-28 [16]) of 100% and a growth at 0.1 µM (HT-29) of 106%. The growth at 0.1 µM (CAKI-1) was 87%, the growth at 10 µM [17] was -22% and the growth at 1 µM [18] was 6%. The growth at 100 µM (HCT-15 [19]) was 2% and the growth at 1 µM (MDA-MB-231 [20]) was 18%.
